# Values quoted from earlier work in patent US10449179B2, “Stable veterinary anthelmintic formulations” (DONAGHYS LIMITED, priority 2014, dated 2019).
# Details: LD50 literature averages for three animal species, human equivalent, safety factor 10
structure (smiles),measurement,value
"C[S+](C)[O-] [DMSO, dimethylsulfoxide]",safety relative to N-methylpyrrolidone (acute oral LD50),approximately 5 times
